Laboratory results as given in patent US12357657B2, “Silver-/gold-compounds and methods thereof” (priority 2019, dated 2025).

Columns and labels:
MCR-1-negative E. coli = assay type: cell-based; conditions: MCR-1-negative E. coli strain
Procedure: (§1) MIC values of either antibiotics or Bi(III) compounds were determined firstly by standard broth micro-dilution method (Clinical and Laboratory Standards Institute (CLSI) M100-S20, 2010). Briefly, bacteria cells were cultured in LB broth overnight at 37° C. at 250 rpm and the optical density was measured at 600 nm (OD600) using a microtiter plate reader. The bacterial density was adjusted to about 1×10^6 CFU mL^−1 and checked by CFU counting on agar plates afterwards. Tested compounds were added triplicately into individual wells of flat-bottomed 96-well plates and performed two-fold serial dilution, followed by addition of prepared bacterial inoculum. The plate was then incubated at 37° C. overnight. Lanes with no antibiotics or bismuth compounds served as positive controls and lanes with no bacteria added served as negative controls. The MIC was determined as the lowest concentration of compounds that could inhibit the growth of microorganism by both visual reading and OD600 measurement.
(§2) Other procedures and the check of MIC were kept strictly the same. […] Synergism was defined as FICI≤0.5, indifference was defined as FICI>0.5 and <4, and antagonism was defined as FICI≥4. All of the determinations were performed at least in triplicate on different days.

MCR-producing E. coli [1] = assay type: cell-based
Procedure: as §1, §2

MCR-1-producing E. coli = assay: Mutant prevention concentration (MPC) test; assay type: cell-based; conditions: for mutant colonies: colistin alone at 16×MIC, or colistin with 30 μg mL^−1 of the compound; for MPI of colistin (MPC/MIC): in presence of 30 μg mL^−1 of the compound
Text: Given the very notion of MIC, all susceptible bacterial cells are suppressed or killed by a dose above it. […] The dose of compounds at MIC adversely amplifies the population of those less-susceptible mutants. Thus, mutant prevention concentration (MPC), defined as a compound concentration that suppresses the growth of first-step resistant mutant in large quantity of susceptible bacterial population, together with mutant prevention index (MPI=MPC/MIC), is introduced to estimate the mutant prevention ability of exemplary compound combination. […] All the plates were incubated at 37° C. Upon incubation for 48 hours, up to 4 colonies were picked and re-cultured from any plates with observable colonies, followed by the measurement of their MIC values. […] The concentration that restricted the growth of mutant colonies was determined as MPC.

MCR-producing E. coli [2] = assay: In vitro serial passage resistance assay; assay type: cell-based; conditions: colistin combined with the compound
Procedure: The in vitro passage assay was also conducted to evaluate the antimicrobial durability of the combination. In a typical experiment, an overnight culture of MCR-producing E. coli was diluted to 10^7 CFU mL^−1 in LB broth. […] All the plates were incubated at 37° C. and the growth of cultures was checked at 24 h intervals. Cultures from the second highest concentrations that allowed growth were performed 1:1000 dilution into fresh medium supplemented with the same concentrations of drugs. For colistin, 1-fold of MIC was set as 4 μg mL^−1. This in vitro passage was repeated for 20 days. MIC of MER was determined every four passages.

S. flexneri (MCR-1+) = assay type: cell-based; conditions: MCR-1 positive S. flexneri; AgNO3 10 μM, auranofin 3 μM, Au(PEt3)Cl 3 μM; untreated 4.1, MCR-1 negative 6.1
Procedure: Membrane potential assay was carried out based on a modified method according to manufacturer's instructions. […] The bacterial pellets were then resuspended in PBS supplemented with DiOC2 (30 μM) and stained at 37° C. for 30 mins. Stained bacteria were then assayed in a flow cytometer and the signals from FITC-A (488 nm, green gate) and PI-A (633 nm, red gate) were collected and then analyzed. S. flexneri without treatment served as the control.

[3] = system: K. pneumoniae 9607 (MCR-1+); assay: Murine infection model, bacterial loads in liver and spleen; assay type: in vivo, mice; conditions: monotherapy, single i.p. dose 1 hr post-infection, 48 hrs; colistin 2 mg kg^−1, auranofin 0.5 mg kg^−1, AgNO3 1.5 mg kg^−1
Procedure: For local infection experiment, an overnight culture of K. pneumoniae 9607 (MCR-1^+) was performed 1:250 dilution in LB broth and re-grew to about OD600 0.5 at 37° C., 250 rpm. Bacterial pellets were collected and washed by PBS buffer three times for further use. Mice were infected intraperitoneally (i.p.) with a dose of 2×10^6 CFU of bacteria in PBS. […] All the mice were scarified at 48 hrs following systemic infection, and bacterial loads in livers and spleens were examined by agar plating. […] Body weights and mice survival were monitored till endpoint of the experiment.

E. coli CKE = assay: Murine systemic infection model, survival assay; assay type: in vivo, mice; conditions: for mice rescued from death: combination with colistin 1 mg kg^−1, single i.p. dose 0.5 hr post infection; for protection of mice from death: mono-therapy, AgNO3 0.75 mg kg^−1 or auranofin 0.25 mg kg^−1 i.p., within 72 hours
MCR-1 = biological target: T1, MCR-1 (Escherichia coli, UniProt A0A0R6L508); assay type: cell-based, E. coli BL21(DE3); conditions: overnight exposure, in cellulo
T1 construct: solvable truncated MCR-1 fragment (200-541 aa) but without any tag; expressed in transfected cells; host or cells: E. coli BL21(DE3)
Procedure: Considering that MCR-1 is a transmembrane protein, we constructed a plasmid with solvable truncated MCR-1 fragment (200-541 aa) but without any tag and then transferred it into E. coli BL21(DE3). The cellular thermal shift assay was performed according to a general standard method. […] The bacterial pellets were harvested and washed with PBS for 3 times. The cell suspensions were aliquoted into PCR tubes and heat treatment was performed at the designated temperature for 3 mins in a 96-well thermal cycler. The tubes were cooled immediately at 25° C., and the heat treatments were repeated for three cycles. For the cell lysis, the samples were frozen-thawed in liquid nitrogen and thermal cycler was set at 25° C. The samples were vortexed gently after each cycle and centrifuged at 20,000×g to obtain the supernatant. All the samples were subjected to SDS-PAGE gel and electrotransferred to a PVDF membrane (Hybond-P, GE Healthcare). A PageRuler Prestained Protein Ladder #26616 (Thermo) was used as a standard marker.

Zn(II)-MCR-1-S = Zn(II)-MCR-1-S (Escherichia coli, UniProt A0A0R6L508); conditions: PAR assay
Procedure: UV-visible spectra were collected by Varian Cary 50 spectrophotometer at a rate of 360 nm/min by using the 1 cm^−1 quartz cuvette. 4-(2-pyridylazo) resorcinol (PAR), a Zn(II) chelator, can strongly chelate free Zn^2+ to form Zn(PAR)2 complex, leading to an obvious migration of maximum absorbance peak from ca. 420 nm to ca. 500 nm. Herein, we incubated apo-MCR-1-S with 10 folds Zn^2+ in dialysis buffer (20 mM HEPES, pH=7.4, 50 mM NH4NO3). After 12 hour incubation, Zn(II)-MCR-1-S was separated into aliquots and then mixed with Ag(I), Au(I) or even their compounds at different molecular ratios. Dialysis buffer instead of these metal compounds was added into Zn(II)-MCR-1-S solution as negative controls. For positive control, 10-folds of Zn(II) were mixed with apo-MCR-1-S. By comparing the peak intensities among different groups, the amounts of released Zn(II) could be calculated. UV-visible spectra were recorded in a range of 220-600 nm at least 30 min later after incubation.

MCR-1-S = MCR-1-S (Escherichia coli, UniProt A0A0R6L508); conditions: ICP-MS
Procedure: The equilibrium dialysis was used to monitor the exact binding process. Apo-MCR-1-S was put in the inner side of dialysis membrane and outer side was supplemented with Au^+, Ag^+ or Zn^2+ at different molar ratios. Zn^2+ displacement analysis was performed by adding equivalents of Au^+ and Ag^+ into outer side of the membrane.

full length MCR-1 = biological target: T2, full length MCR-1 (Escherichia coli, UniProt A0A0R6L508); assay type: biochemical; conditions: MCR-1 pre-treated with 10 molar equivalents, 25° C. overnight
T2 construct: The full length MCR-1 was pre-treated with or without 10 molar equivalents
Procedure: TLC plate was used to separate NBD-glycerol from the MCR-1 reaction mixture in a mobile phase [ethyl acetate:methanol:water, 7:2:1 (vol/vol)]. The reaction product was analyzed by exposing the TLC plate to UV light (455-485 nm) and visualizing the fluorescent signals with a gel imaging system. […] Cellular Thermal Shift Assay

apo-MCR-1-S = apo-MCR-1-S (Escherichia coli, UniProt A0A0R6L508); assay: biochemical
Procedure: The apo-MCR-1-S without any tag was diluted into proper concentration for ITC assay. […] The stoichiometry of metal binding and binding affinities were obtained by fitting the data with proper equations and these assays were performed in triplicate.

MCR-1-S, sequence (A0A0R6L508 200-541): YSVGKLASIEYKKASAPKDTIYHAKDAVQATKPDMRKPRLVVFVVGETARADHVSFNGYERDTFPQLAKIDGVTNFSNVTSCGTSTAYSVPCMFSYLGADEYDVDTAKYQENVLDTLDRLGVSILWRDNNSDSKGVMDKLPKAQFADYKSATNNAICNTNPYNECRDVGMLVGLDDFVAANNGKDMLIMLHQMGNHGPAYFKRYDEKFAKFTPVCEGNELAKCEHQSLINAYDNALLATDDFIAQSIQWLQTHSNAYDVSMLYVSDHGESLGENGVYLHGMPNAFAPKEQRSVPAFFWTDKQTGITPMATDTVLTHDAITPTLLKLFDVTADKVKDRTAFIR
apo-MCR-1-S, sequence (A0A0R6L508 200-541): as above
Zn(II)-MCR-1-S, sequence (A0A0R6L508 200-541): as above
T1 sequence (A0A0R6L508 200-541): as above
T2 sequence (A0A0R6L508 whole entry): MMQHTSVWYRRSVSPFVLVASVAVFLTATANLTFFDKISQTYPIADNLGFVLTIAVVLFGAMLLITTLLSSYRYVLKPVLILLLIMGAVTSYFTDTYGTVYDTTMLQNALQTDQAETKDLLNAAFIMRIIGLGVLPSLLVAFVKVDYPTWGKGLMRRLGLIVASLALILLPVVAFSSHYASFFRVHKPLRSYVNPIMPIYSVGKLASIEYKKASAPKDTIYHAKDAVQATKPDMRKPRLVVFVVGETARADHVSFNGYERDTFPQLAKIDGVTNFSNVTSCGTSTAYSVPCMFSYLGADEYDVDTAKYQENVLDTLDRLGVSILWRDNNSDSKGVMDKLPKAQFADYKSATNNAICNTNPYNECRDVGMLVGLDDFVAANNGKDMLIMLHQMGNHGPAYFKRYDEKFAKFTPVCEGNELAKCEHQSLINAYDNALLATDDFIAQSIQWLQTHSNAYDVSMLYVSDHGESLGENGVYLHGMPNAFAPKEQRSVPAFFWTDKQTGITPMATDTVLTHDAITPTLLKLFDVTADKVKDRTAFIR

Row | SMILES | inhibition in combination with colistin (MCR-1-negative E. coli) | MIC of colistin in combination with the compound (MCR-producing E. coli [1]; checkerboard, lowest colistin MIC reached with increasing compound) | FIC index (FICI) with colistin (MCR-producing E. coli [1]; synergism FICI≤0.5) | mutant colonies (MCR-1-producing E. coli) | MPI of colistin (MPC/MIC) (MCR-1-producing E. coli) | fold rise of colistin MIC after 16 serial passages (MCR-producing E. coli [2]) | green/red fluorescent ratio after treatment (S. flexneri (MCR-1+)) | CFUs in liver and spleen [3] | mice rescued from death (E. coli CKE) | protection of mice from death (E. coli CKE) | decrease of cellular thermal stability of MCR-1, ΔTm (MCR-1) | release of Zn(II) from MCR-1-S upon titration (Zn(II)-MCR-1-S) | replacement of protein bound metal by extraneous Zn(II) (MCR-1-S) | equivalents of metal that replaced about 3 molar equivalents of Zn(II) (MCR-1-S; equilibrium dialysis) | migration of NBD-glycerol (cleavage activity of MCR-1) (full length MCR-1) | Kd (apo-MCR-1-S)
1 | CC(=O)OC[C@H]1O[C@@H]([S-])[C@H](OC(C)=O)[C@@H](OC(C)=O)[C@@H]1OC(C)=O.CCP(CC)CC.[Au+] [auranofin] | no inhibition was observed | 0.25 µg/mL | 0.375 | no mutant colony was observable | 0.5 | 4 folds | 6.1 | ~10^5 cfu mL^−1 g^−1 | protect all the infected mice from death | failed to protect any of the mice from death | 5.2 °C |  |  |  |  | 
2 | [Ag+] [AgNO3, silver nitrate] | no inhibition was observed |  |  | no mutant colony was observable | 0.5 |  |  | ~10^5 cfu mL^−1 g^−1 | 3 out of 6 | failed to protect any of the mice from death |  | completely released | could not be replaced | 16 equivalent | none of AgNO3, AuCl or Au(PEt3)Cl treatment group exhibited observable migration | ~200 nM
3 | [Zn+2] [Zn(Ac)2, zinc(II) acetate] |  |  |  |  |  |  |  |  |  |  |  |  |  |  |  | ~2450 nM
